Test results taken from PubChem BioAssay AID330 (DTP/NCI, 2004).
“And” between values parts separate entries of the source, which are not always exact repeats. Equal values may be shown once. Toxic doses and inconclusive results are not listed. The calls were made as follows: active = survival T/C of 150% or more; inactive = T/C below 125% in these data.

Test system: P388 leukemia ip, CD2F1 mice, survival T/C
Experiment: NCI In Vivo Anticancer Drug Screen. Data for tumor model P388 Leukemia (intraperitoneal) in CD2F1 (CDF1) mice
Settings: endpoint: median survival time, higher = longer survival
How it was run: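 Mice carrying the transplanted tumor received test compound or vehicle. Survival was recorded in each group, and the value is the treated-group measurement divided by that of the vehicle-treated control group.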

[1] = dose: 50.0 mg/kg/injection, schedule: Q01DX005 (ip), vehicle: Klucel (hydroxypropylcellulose) (HPC)
[2] = dose: 100.0 mg/kg/injection, schedule: Q01DX005 (ip), vehicle: Klucel (hydroxypropylcellulose) (HPC)
[3] = dose: 200.0 mg/kg/injection, schedule: Q01DX005 (ip), vehicle: Klucel (hydroxypropylcellulose) (HPC)
[4] = dose: 50.0 mg/kg/injection, schedule: Q01DX009 (ip), vehicle: saline
[5] = dose: 100.0 mg/kg/injection, schedule: Q01DX009 (ip), vehicle: saline
[6] = dose: 200.0 mg/kg/injection, schedule: Q01DX009 (ip), vehicle: saline
[7] = dose: 50.0 mg/kg/injection, schedule: Q01DX009 (ip), vehicle: saline with Tween-80
[8] = dose: 100.0 mg/kg/injection, schedule: Q01DX009 (ip), vehicle: saline with Tween-80
[9] = dose: 200.0 mg/kg/injection, schedule: Q01DX009 (ip), vehicle: saline with Tween-80
[10] = dose: 50.0 mg/kg/injection, schedule: Q01DX005 (ip), vehicle: saline with Tween-80
[11] = dose: 100.0 mg/kg/injection, schedule: Q01DX005 (ip), vehicle: saline with Tween-80
[12] = dose: 200.0 mg/kg/injection, schedule: Q01DX005 (ip), vehicle: saline with Tween-80

Measured: T/C

CC(=O)NCC1CC2(Cl)C(Cl)=C(Cl)C1(Cl)C2(Cl)Cl (configuration not stated)
inactive: [1] 101 % of control | [2] 106 % of control | [3] 106 % of control

CC1(C)COC(=O)/C1=C\C#N
inactive: dose: 50.0 mg/kg/injection, schedule: Q04DX003 (ip), vehicle: Klucel (hydroxypropylcellulose) (HPC) 94 % of control and 98 % of control | dose: 100.0 mg/kg/injection, schedule: Q04DX003 (ip), vehicle: Klucel (hydroxypropylcellulose) (HPC) 105 % of control | dose: 100.0 mg/kg/injection, schedule: Q04DX003 (ip), vehicle: saline 101 % of control | dose: 200.0 mg/kg/injection, schedule: Q04DX003 (ip), vehicle: Klucel (hydroxypropylcellulose) (HPC) 100 % of control and 97 % of control | dose: 200.0 mg/kg/injection, schedule: Q04DX003 (ip), vehicle: saline 111 % of control | dose: 400.0 mg/kg/injection, schedule: Q04DX003 (ip), vehicle: Klucel (hydroxypropylcellulose) (HPC) 105 % of control | dose: 400.0 mg/kg/injection, schedule: Q04DX003 (ip), vehicle: saline 120 % of control

COC1OC2COC(c3ccc(Cl)cc3)OC2C2OC12 (configuration not stated)
inactive: dose: 7.5 mg/kg/injection, schedule: Q04DX002 (ip), vehicle: saline with Tween-80 102 % of control | dose: 15.0 mg/kg/injection, schedule: Q04DX002 (ip), vehicle: saline with Tween-80 101 % of control | dose: 30.0 mg/kg/injection, schedule: Q04DX002 (ip), vehicle: saline with Tween-80 102 % of control

CCCCCCCCCCOc1cc2c(=O)c(C(=O)OCC)c[nH]c2cc1OCC
inactive: [1] 102 % of control | [2] 98 % of control | [3] 108 % of control

CCOP(=O)(OCC)C1OCC(O)C(C2OC(P(=O)(OCC)OCC)OCC2O)O1 (configuration not stated)
inactive: [4] 109 % of control | [5] 112 % of control | [6] 112 % of control

COC(=O)N[Si](C)(C)C
inactive: [4] 93 % of control | [5] 98 % of control | [6] 100 % of control

CCC(C)C1=NCCCN1 (configuration not stated)
inactive: dose: 100.0 mg/kg/injection, schedule: Q01DX001 (ip), vehicle: saline 100 % of control

COc1cc2nnn(-c3ccncc3)c2cc1OC
inactive: dose: 25.0 mg/kg/injection, schedule: Q01DX009 (ip), vehicle: other 100 % of control | dose: 50.0 mg/kg/injection, schedule: Q01DX009 (ip), vehicle: other 93 % of control | dose: 100.0 mg/kg/injection, schedule: Q01DX009 (ip), vehicle: other 99 % of control | dose: 200.0 mg/kg/injection, schedule: Q01DX009 (ip), vehicle: other 96 % of control | dose: 400.0 mg/kg/injection, schedule: Q01DX009 (ip), vehicle: other 96 % of control

CC(=Nc1ccccc1)C1=C(O)C(CC(C)C)NC1=O (configuration not stated)
inactive: [7] 103 % of control | [8] 99 % of control | [9] 100 % of control | dose: 400.0 mg/kg/injection, schedule: Q01DX009 (ip), vehicle: saline with Tween-80 110 % of control

COc1ccc(CSc2ncnc3nc[nH]c23)cc1
inactive: dose: 25.0 mg/kg/injection, schedule: Q01DX009 (ip), vehicle: saline with Tween-80 91 % of control | [7] 87 % of control

C=CCC(NC(=O)CCl)C(=O)O (configuration not stated)
inactive: [4] 92 % of control | [5] 90 % of control

COc1cccc2c1C(=O)c1c(O)c3c(c(O)c1C2=O)CC(O)(C(=O)COC(C)C)CC3OC1CC(N)C(O)C(C)O1 (configuration not stated)
inactive: dose: 3.13 mg/kg/injection, schedule: Q04DX003 (ip), vehicle: water 97 % of control | dose: 6.25 mg/kg/injection, schedule: Q04DX003 (ip), vehicle: water 100 % of control | dose: 12.5 mg/kg/injection, schedule: Q04DX003 (ip), vehicle: water 100 % of control | dose: 25.0 mg/kg/injection, schedule: Q04DX003 (ip), vehicle: water 119 % of control | dose: 50.0 mg/kg/injection, schedule: Q04DX003 (ip), vehicle: water 109 % of control

CCCCCCCCCCCCCCCC[N+]1(CCC(C)C)CCOCC1
inactive: dose: 100.0 mg/kg/injection, schedule: Q04DX002 (ip), vehicle: Klucel (hydroxypropylcellulose) (HPC) 100 % of control | dose: 200.0 mg/kg/injection, schedule: Q04DX002 (ip), vehicle: Klucel (hydroxypropylcellulose) (HPC) 94 % of control | dose: 400.0 mg/kg/injection, schedule: Q04DX002 (ip), vehicle: Klucel (hydroxypropylcellulose) (HPC) 104 % of control

O=C(NC1(Sc2ccccc2)CC1)c1ccc(Cl)cc1
inactive: dose: 15.0 mg/kg/injection, schedule: Q01DX005 (ip), vehicle: Klucel (hydroxypropylcellulose) (HPC) 98 % of control | dose: 30.0 mg/kg/injection, schedule: Q01DX005 (ip), vehicle: Klucel (hydroxypropylcellulose) (HPC) 88 % of control | dose: 60.0 mg/kg/injection, schedule: Q01DX005 (ip), vehicle: Klucel (hydroxypropylcellulose) (HPC) 88 % of control

COc1ccc(S(=O)(=O)OCCCl)cc1
inactive: [7] 100 % of control | [8] 97 % of control | [9] 100 % of control

COc1ccc(/C=N\S(=O)(=O)c2ccc(OC)cc2)cc1
inactive: dose: 50.0 mg/kg/injection, schedule: Q01DX009 (ip), vehicle: Klucel (hydroxypropylcellulose) (HPC) 111 % of control | dose: 100.0 mg/kg/injection, schedule: Q01DX009 (ip), vehicle: Klucel (hydroxypropylcellulose) (HPC) 102 % of control | dose: 200.0 mg/kg/injection, schedule: Q01DX009 (ip), vehicle: Klucel (hydroxypropylcellulose) (HPC) 95 % of control

CCCCCC(O)CC(O)CC(=O)CCCC(=O)CC(O)CC(=O)CCCCCC(O)CC(O)CC(=O)CCCC(=O)CC(O)CC(=O)CCCC(C)=O (configuration not stated) (tested in a mixture with another compound)
inactive: dose: 0.62 mg/kg/injection, schedule: Q01DX005 (ip), vehicle: DMSO 91 % of control | dose: 1.25 mg/kg/injection, schedule: Q01DX005 (ip), vehicle: DMSO 91 % of control | dose: 2.5 mg/kg/injection, schedule: Q01DX005 (ip), vehicle: DMSO 90 % of control | dose: 5.0 mg/kg/injection, schedule: Q01DX005 (ip), vehicle: DMSO 92 % of control | dose: 10.0 mg/kg/injection, schedule: Q01DX005 (ip), vehicle: DMSO 100 % of control | dose: 20.0 mg/kg/injection, schedule: Q01DX005 (ip), vehicle: DMSO 93 % of control

CCOC(=O)c1c(NC(=O)c2ccccc2)sc2c(=O)oc(-c3ccccc3)nc12
inactive: [1] 97 % of control | [2] 90 % of control | [3] 90 % of control

CC(C)C(NC(=O)OCc1ccccc1)C(=O)NC(Cc1c[nH]c2ccccc12)C(=O)O (configuration not stated)
inactive: [10] 99 % of control | [11] 99 % of control | [12] 95 % of control

CCCCN(CCCC)CCNc1ccc(C)c2sc3cc(C)ccc3c(=O)c12
inactive: [10] 116 % of control | [11] 102 % of control | [12] 98 % of control

C=C1C(=O)OC2CC(C)C3(O)CCC(=O)C3(C)CC12 (configuration not stated)
inactive: dose: 25.0 mg/kg/injection, schedule: Q01DX005 (ip), vehicle: Klucel (hydroxypropylcellulose) (HPC) 98 % of control | [1] 90 % of control | [2] 100 % of control | [3] 102 % of control

C/C(Cl)=C\c1nc2ccccc2nc1Cl
inactive: dose: 100.0 mg/kg/injection, schedule: Q01DX001 (ip), vehicle: Klucel (hydroxypropylcellulose) (HPC) 100 % of control | dose: 200.0 mg/kg/injection, schedule: Q01DX001 (ip), vehicle: Klucel (hydroxypropylcellulose) (HPC) 92 % of control | dose: 400.0 mg/kg/injection, schedule: Q01DX001 (ip), vehicle: Klucel (hydroxypropylcellulose) (HPC) 92 % of control

Cc1ccc(-[n+]2c3cc(N)c(C)cc3nc3cc(C)c(Nc4ccccc4)cc32)cc1
inactive: dose: 25.0 mg/kg/injection, schedule: Q01DX005 (ip), vehicle: saline + Tween-80 + alcohol 109 % of control | dose: 25.0 mg/kg/injection, schedule: Q01DX005 (ip), vehicle: saline with Tween-80 101 % of control | dose: 50.0 mg/kg/injection, schedule: Q01DX005 (ip), vehicle: saline + Tween-80 + alcohol 116 % of control | [10] 119 % of control and 122 % of control | [11] 119 % of control and 122 % of control | [12] 119 % of control

O=C(NC(=O)c1c(F)cccc1F)Nc1ccc(Cl)nc1
inactive: dose: 3.13 mg/kg/injection, schedule: Q01DX009 (ip), vehicle: saline with Tween-80 105 % of control | dose: 6.25 mg/kg/injection, schedule: Q01DX009 (ip), vehicle: saline with Tween-80 100 % of control | dose: 12.5 mg/kg/injection, schedule: Q01DX009 (ip), vehicle: saline with Tween-80 102 % of control

OCCOCCSCCOCCO
inactive: dose: 50.0 mg/kg/injection, schedule: Q01DX005 (ip), vehicle: saline 100 % of control | dose: 100.0 mg/kg/injection, schedule: Q01DX005 (ip), vehicle: saline 100 % of control | dose: 200.0 mg/kg/injection, schedule: Q01DX005 (ip), vehicle: saline 102 % of control
